Columns and labels:
[1] = target: T1, Orexin/Hypocretin receptor type 1 (Homo sapiens, UniProt O43613); experiment: Displacement of […]5IBOM from OX1R (unknown origin) transfected in CHO cells assessed as inhibition constant incubated for 1.5 hrs by automated gamma-counter analysis; format: cell-based
T1 sequence (O43613 whole entry): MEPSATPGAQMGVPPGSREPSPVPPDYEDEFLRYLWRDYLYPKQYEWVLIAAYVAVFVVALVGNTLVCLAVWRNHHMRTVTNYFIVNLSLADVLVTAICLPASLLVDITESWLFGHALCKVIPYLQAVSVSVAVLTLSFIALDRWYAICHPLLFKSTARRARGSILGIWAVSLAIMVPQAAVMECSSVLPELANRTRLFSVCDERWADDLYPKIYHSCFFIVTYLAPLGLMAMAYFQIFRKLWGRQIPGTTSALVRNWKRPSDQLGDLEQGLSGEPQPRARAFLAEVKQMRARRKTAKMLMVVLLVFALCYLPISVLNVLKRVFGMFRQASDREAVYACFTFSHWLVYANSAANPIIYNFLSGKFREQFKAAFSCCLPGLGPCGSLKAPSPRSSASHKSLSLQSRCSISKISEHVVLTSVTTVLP

Orexin receptor type 2 = target: T2, Orexin receptor type 2 (Homo sapiens, UniProt O43614); experiment: Displacement of […]5IBOM from OX2R (unknown origin) transfected in CHO cells assessed as inhibition constant incubated for 1.5 hrs by automated gamma-counter analysis; format: cell-based
T2 sequence (O43614 whole entry): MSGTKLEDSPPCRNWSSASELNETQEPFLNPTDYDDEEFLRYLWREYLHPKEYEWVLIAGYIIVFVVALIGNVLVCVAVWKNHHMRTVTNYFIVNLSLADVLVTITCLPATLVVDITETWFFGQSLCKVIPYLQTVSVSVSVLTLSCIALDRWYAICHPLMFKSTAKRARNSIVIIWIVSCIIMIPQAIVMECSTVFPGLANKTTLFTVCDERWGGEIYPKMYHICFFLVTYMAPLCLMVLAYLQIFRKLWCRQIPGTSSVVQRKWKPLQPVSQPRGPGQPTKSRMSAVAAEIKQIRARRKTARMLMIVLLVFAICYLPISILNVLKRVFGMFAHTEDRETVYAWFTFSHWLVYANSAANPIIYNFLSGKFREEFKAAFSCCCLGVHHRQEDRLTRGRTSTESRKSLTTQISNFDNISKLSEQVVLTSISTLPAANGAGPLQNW

[2] = Selectivity ratio of Ki for OX2R (unknown origin) transfected in CHO cells to Ki for OX1R (unknown origin) transfected in CHO cells; format: cell-based
[3] = Biodistribution in male ddY mouse blood administered intravenously and measured at 2 mins postinjection by gamma counter analysis; format: ADME, organism-based; conditions: in vivo, iv
[4] = Biodistribution in male ddY mouse blood administered intravenously and measured at 10 mins postinjection by gamma counter analysis; format: ADME, organism-based; conditions: in vivo, iv
[5] = Biodistribution in male ddY mouse blood administered intravenously and measured at 30 mins postinjection by gamma counter analysis; format: ADME, organism-based; conditions: in vivo, iv, 0.5 h
[6] = Biodistribution in male ddY mouse blood administered intravenously and measured at 60 mins postinjection by gamma counter analysis; format: ADME, organism-based; conditions: in vivo, iv, 1 h
[7] = Biodistribution in male ddY mouse spleen administered intravenously and measured at 2 mins postinjection by gamma counter analysis; format: ADME, organism-based; conditions: in vivo, iv
[8] = Biodistribution in male ddY mouse spleen administered intravenously and measured at 10 mins postinjection by gamma counter analysis; format: ADME, organism-based; conditions: in vivo, iv
[9] = Biodistribution in male ddY mouse spleen administered intravenously and measured at 30 mins postinjection by gamma counter analysis; format: ADME, organism-based; conditions: in vivo, iv, 0.5 h
[10] = Biodistribution in male ddY mouse spleen administered intravenously and measured at 60 mins postinjection by gamma counter analysis; format: ADME, organism-based; conditions: in vivo, iv, 1 h
[11] = Biodistribution in male ddY mouse pancreas administered intravenously and measured at 2 mins postinjection by gamma counter analysis; format: ADME, organism-based; conditions: in vivo, iv
[12] = Biodistribution in male ddY mouse pancreas administered intravenously and measured at 10 mins postinjection by gamma counter analysis; format: ADME, organism-based; conditions: in vivo, iv
[13] = Biodistribution in male ddY mouse pancreas administered intravenously and measured at 30 mins postinjection by gamma counter analysis; format: ADME, organism-based; conditions: in vivo, iv, 0.5 h
[14] = Biodistribution in male ddY mouse pancreas administered intravenously and measured at 60 mins postinjection by gamma counter analysis; format: ADME, organism-based; conditions: in vivo, iv, 1 h
[15] = Biodistribution in male ddY mouse stomach administered intravenously and measured per organ at 2 mins postinjection by gamma counter analysis; format: ADME, organism-based; conditions: in vivo, iv
[16] = Biodistribution in male ddY mouse stomach administered intravenously and measured per organ at 10 mins postinjection by gamma counter analysis; format: ADME, organism-based; conditions: in vivo, iv
[17] = Biodistribution in male ddY mouse stomach administered intravenously and measured per organ at 30 mins postinjection by gamma counter analysis; format: ADME, organism-based; conditions: in vivo, iv, 0.5 h
[18] = Biodistribution in male ddY mouse stomach administered intravenously and measured per organ at 60 mins postinjection by gamma counter analysis; format: ADME, organism-based; conditions: in vivo, iv, 1 h
[19] = Biodistribution in male ddY mouse intestine administered intravenously and measured at 2 mins postinjection by gamma counter analysis; format: ADME, organism-based; conditions: in vivo, iv
[20] = Biodistribution in male ddY mouse intestine administered intravenously and measured at 10 mins postinjection by gamma counter analysis; format: ADME, organism-based; conditions: in vivo, iv
[21] = Biodistribution in male ddY mouse intestine administered intravenously and measured at 30 mins postinjection by gamma counter analysis; format: ADME, organism-based; conditions: in vivo, iv, 0.5 h
[22] = Biodistribution in male ddY mouse intestine administered intravenously and measured at 60 mins postinjection by gamma counter analysis; format: ADME, organism-based; conditions: in vivo, iv, 1 h
[23] = Biodistribution in male ddY mouse kidney administered intravenously and measured at 2 mins postinjection by gamma counter analysis; format: ADME, organism-based; conditions: in vivo, iv
[24] = Biodistribution in male ddY mouse kidney administered intravenously and measured at 10 mins postinjection by gamma counter analysis; format: ADME, organism-based; conditions: in vivo, iv
[25] = Biodistribution in male ddY mouse kidney administered intravenously and measured at 30 mins postinjection by gamma counter analysis; format: ADME, organism-based; conditions: in vivo, iv, 0.5 h
[26] = Biodistribution in male ddY mouse kidney administered intravenously and measured at 60 mins postinjection by gamma counter analysis; format: ADME, organism-based; conditions: in vivo, iv, 1 h
[27] = Biodistribution in male ddY mouse liver administered intravenously and measured at 2 mins postinjection by gamma counter analysis; format: ADME, organism-based; conditions: in vivo, iv
[28] = Biodistribution in male ddY mouse liver administered intravenously and measured at 10 mins postinjection by gamma counter analysis; format: ADME, organism-based; conditions: in vivo, iv
[29] = Biodistribution in male ddY mouse liver administered intravenously and measured at 30 mins postinjection by gamma counter analysis; format: ADME, organism-based; conditions: in vivo, iv, 0.5 h
[30] = Biodistribution in male ddY mouse liver administered intravenously and measured at 60 mins postinjection by gamma counter analysis; format: ADME, organism-based; conditions: in vivo, iv, 1 h
[31] = Biodistribution in male ddY mouse heart administered intravenously and measured at 2 mins postinjection by gamma counter analysis; format: ADME, organism-based; conditions: in vivo, iv
[32] = Biodistribution in male ddY mouse heart administered intravenously and measured at 10 mins postinjection by gamma counter analysis; format: ADME, organism-based; conditions: in vivo, iv
[33] = Biodistribution in male ddY mouse heart administered intravenously and measured at 30 mins postinjection by gamma counter analysis; format: ADME, organism-based; conditions: in vivo, iv, 0.5 h
[34] = Biodistribution in male ddY mouse heart administered intravenously and measured at 60 mins postinjection by gamma counter analysis; format: ADME, organism-based; conditions: in vivo, iv, 1 h
[35] = Biodistribution in male ddY mouse lung administered intravenously and measured at 2 mins postinjection by gamma counter analysis; format: ADME, organism-based; conditions: in vivo, iv
[36] = Biodistribution in male ddY mouse lung administered intravenously and measured at 10 mins postinjection by gamma counter analysis; format: ADME, organism-based; conditions: in vivo, iv
[37] = Biodistribution in male ddY mouse lung administered intravenously and measured at 30 mins postinjection by gamma counter analysis; format: ADME, organism-based; conditions: in vivo, iv, 0.5 h
[38] = Biodistribution in male ddY mouse lung administered intravenously and measured at 60 mins postinjection by gamma counter analysis; format: ADME, organism-based; conditions: in vivo, iv, 1 h
[39] = Biodistribution in male ddY mouse brain administered intravenously and measured at 2 mins postinjection by gamma counter analysis; format: ADME, organism-based; conditions: in vivo, iv
[40] = Biodistribution in male ddY mouse brain administered intravenously and measured at 10 mins postinjection by gamma counter analysis; format: ADME, organism-based; conditions: in vivo, iv
[41] = Biodistribution in male ddY mouse brain administered intravenously and measured at 30 mins postinjection by gamma counter analysis; format: ADME, organism-based; conditions: in vivo, iv, 0.5 h
[42] = Biodistribution in male ddY mouse brain administered intravenously and measured at 60 mins postinjection by gamma counter analysis; format: ADME, organism-based; conditions: in vivo, iv, 1 h
[43] = Biodistribution in male ddY mouse bone administered intravenously and measured at 2 mins postinjection by gamma counter analysis; format: ADME, organism-based, Bone element; conditions: in vivo, iv
[44] = Biodistribution in male ddY mouse bone administered intravenously and measured at 10 mins postinjection by gamma counter analysis; format: ADME, organism-based, Bone element; conditions: in vivo, iv
[45] = Biodistribution in male ddY mouse bone administered intravenously and measured at 30 mins postinjection by gamma counter analysis; format: ADME, organism-based, Bone element; conditions: in vivo, iv, 0.5 h
[46] = Biodistribution in male ddY mouse bone administered intravenously and measured at 60 mins postinjection by gamma counter analysis; format: ADME, organism-based, Bone element; conditions: in vivo, iv, 1 h

In the case of `Cc1ccc2nc(N3CCCN(C(=O)c4cc(F)ccc4-n4nccn4)[C@@H](C)C3)sc2c1`, the Ki [1] is reported as 7.46 nM, the Ki (Orexin receptor type 2) is reported as 26.1 nM and the Ratio Ki [2] is reported as 3.5.
In the case of `C[C@H]1CN(c2nc3ccccc3s2)CCCN1C(=O)c1cc(F)ccc1-n1nccn1`, the Ki [1] is reported as 2.33 nM, the Ki (Orexin receptor type 2) is reported as 62.8 nM and the Ratio Ki [2] is reported as 26.9.
`Cc1ccc(-n2nccn2)c(C(=O)N2CCCN(c3nc4cc([18F])ccc4s3)C[C@@H]2C)c1` gave a Drug uptake [3] of 4.74 % ID/g, a Drug uptake [4] of 3.87 % ID/g and a Drug uptake [5] of 2.2 % ID/g. The Drug uptake [6] was 0.64 % ID/g, the Drug uptake [7] was 4.4 % ID/g and the Drug uptake [8] was 4.09 % ID/g. The Drug uptake [9] was 1.43 % ID/g, the Drug uptake [10] was 0.45 % ID/g and the Drug uptake [11] was 8.33 % ID/g. The Drug uptake [12] was 4.87 % ID/g, the Drug uptake [13] was 1.47 % ID/g and the Drug uptake [14] was 0.53 % ID/g. It also gave a Drug uptake [15] of 2.38 %ID, a Drug uptake [16] of 4.17 %ID and a Drug uptake [17] of 1.58 %ID. It also gave a Drug uptake [18] of 1.97 %ID, a Drug uptake [19] of 3.5 % ID/g and a Drug uptake [20] of 8.75 % ID/g. The Drug uptake [21] was 11.6 % ID/g, the Drug uptake [22] was 15.3 % ID/g and the Drug uptake [23] was 11.9 % ID/g. For the same molecule, the Drug uptake [24] was 7.95 % ID/g, the Drug uptake [25] was 4.53 % ID/g and the Drug uptake [26] was 1.64 % ID/g. For the same molecule, the Drug uptake [27] was 17.2 % ID/g, the Drug uptake [28] was 30.6 % ID/g and the Drug uptake [29] was 10.1 % ID/g. The Drug uptake [30] was 4.12 % ID/g, the Drug uptake [31] was 9.03 % ID/g and the Drug uptake [32] was 10.2 % ID/g. It also gave a Drug uptake [33] of 2.19 % ID/g, a Drug uptake [34] of 0.7 % ID/g and a Drug uptake [35] of 9.43 % ID/g. The Drug uptake [36] was 5.68 % ID/g, the Drug uptake [37] was 2.6 % ID/g and the Drug uptake [38] was 0.7 % ID/g. The Drug uptake [39] was 3.81 % ID/g, the Drug uptake [40] was 1.49 % ID/g and the Drug uptake [41] was 0.39 % ID/g. The Drug uptake [42] was 0.15 % ID/g, the Drug uptake [43] was 2.51 % ID/g and the Drug uptake [44] was 8.73 % ID/g. It also gave a Drug uptake [45] of 25.8 % ID/g and a Drug uptake [46] of 37.8 % ID/g.

From ChEMBL document CHEMBL6120977, “Structure-Affinity-Pharmacokinetics Relationships of Novel 18F-Labeled 1,4-Diazepane Derivatives for Orexin 1 Receptor Imaging” (J Med Chem, 2024)
